# Reference: US10544112B2, “Identification of ebsulfur analogues with broad-spectrum antifungal activity” (priority 2017, dated 2020)
# Like-named read-outs stand apart in the source and are kept apart here.
# Key:
# Candida strains (A-J) = assay: Antifungal MIC, summary over panel of Candida strains; type: cell-based
# Experimental: Fungal MIC determination experiments were performed using untreated 96-well plates (Corning). Cells were counted either by using a hemocytometer (Hausser Scientific, Horsham, Pa., USA) or by measuring optical density at attenuance of 600 nm (OD600) by using a Genesys 20 spectrophotometer (Thermo Scientific, Waltham, Mass., USA). Spectrophotometric and colorimetric measurements in 96-well plates were performed using a SpectraMax M5 spectrometer (Molecular Devices, Sunnyvale, Calif., USA).
# Yeast strains Candida albicans ATCC 10231 (strain A), C. albicans ATCC 64124 (strain B), and C. albicans ATCC MYA-2876(S) (strain C) were kindly provided by Dr. Jon Y. Takemoto (Utah State University, Logan, UT, USA). C. albicans ATCC MYA-90819(R) (strain D), C. albicans ATCC MYA-2310(S) (strain E), C. albicans ATCC 1237(R) (strain F), C. albicans ATCC MYA-1003(R) (strain G), Candida glabrata ATCC 2001 (strain H), Candida krusei ATCC 6258 (strain I), and Candida parapsilosis ATCC 22019 (strain J) were obtained from the American Type Culture Collection (ATCC, Manassas, Va., USA). The (S) and (R) indicate that ATCC reports these strains to be susceptible (S) and resistant (R) to ITC and FLC. The filamentous fungal strains Aspergillus flavus ATCC MYA-3631 (strain K), and Aspergillus terreus ATCC MYA-3633 (strain M) were also obtained from the American Type Culture Collection (ATCC, Manassas, Va., USA). Aspergillus nidulans ATCC 38163 (strain L) was kindly provided by Dr. Jon S. Thorson (University of Kentucky, Lexington, Ky., USA), respectively. Yeast strains were cultured at 35° C. Filamentous fungal strains were cultured at 25° C. and the spores were harvested. All fungal strains were cultured in RPMI 1640 medium (catalog # R6504, Sigma-Aldrich Chemical Co., St. Louis, Mo.) buffered to pH 7.0 with 0.165 M morpholinepropanesulfonic acid (MOPS) buffer (Sigma-Aldrich Chemical Co.).
# The MIC values against fungal strains were determined based on a previously published protocol. MIC values for ebsulfur (2a) analogues against fungal cells were evaluated in 96-well plates as described in the CLSI document M27-A3 with minor modifications. […] Therefore, potato dextrose broth (PDB) was used to grow the yeast inocula of all strains tested, which were later diluted in RPMI 1640 medium to perform determination of MIC values. […] The tested compounds (10 mg/mL) were diluted to the working stocks (500 μg/mL) by addition of DMSO. Two-fold serial dilution of the working stocks was prepared by addition of RPMI 1640 medium (100 μL) and cell suspension (100 μL) to 96-well microtiter plate to achieve final drug and inoculum concentrations ranging from 12.5-0.02 μg/mL and 5×10^3 CFU/mL, respectively. Plates were incubated for 48 h at 35° C. […]
# J774A.1 cell line = conditions: for cell death: J774, 10 μg/mL, 24 h
# Experimental: The human embryonic kidney cell line HEK-293 (ATCC CRL-1573) and the murine macrophage cell line J774A.1 (ATCC TIB-67) were kindly provided by Dr. Matthew S. Gentry and Dr. David J. Feola (University of Kentucky, Lexington, Ky., USA), respectively. The HEK-293 cell line was grown in Dulbecco's Modified Eagle's Medium (DMEM) (ATCC, Manassas, Va., USA) with 10% fetal bovine serum (FBS) (ATCC, Manassas, Va., USA) and 1% Pen/Strep (ATCC, Manassas, Va., USA). The J774A.1 cell line was grown under the same conditions, except that the medium used was a different type of DMEM (catalog #30-2002, ATCC, Manassas, Va., USA). The HEK-293 cell line was passaged by trypsinization with 0.05%-trypsin-0.53 mM EDTA (ATCC, Manassas, Va., USA). The J774A.1 cell line was passaged mechanically by cell scrapers (ATCC, Manassas, Va., USA). Cell confluency was observed by using a Nikon Eclipse TS100 microscope (Minato, Tokyo, Japan).
# Mammalian cytotoxicity assays were performed as previously described with minor modifications (FIG. 4). The HEK-293 and J774A.1 cell lines were grown in various Dulbecco's Modified Eagle's Medium (DMEM) with 10% fetal bovine serum (FBS) and 1% Pen/Strep at 37° C. with 5% CO2. The confluent cells were either trypsinized with 0.05%-trypsin-0.53 mM EDTA (HEK-293 cell line) or mechanically removed by cell scrapers (J774A.1 cell line). […] The cells were incubated with tested compounds for another 24 h at 37° C. with 5% CO2. Cell survival was assessed by resazurin assay. Each well was treated with resazurin (10 μL of a 25 mg/L solution) for 6 h. […] Dead cells remain purple/blue. The percentage of survival rate was calculated by using the following formula: [(test value)/(control value)×100].
# [1] = system: C. albicans ATCC 64124 (strain B); type: cell-based, Candida albicans
# Experimental: The efficiency of the compounds to kill C. albicans ATCC 64124 (strain B) was monitored using a previously published protocol. The cell suspensions were prepared to achieve an inoculum of approximately 1-4×10^5 CFU/mL in RPMI 1640 medium at 35° C. […] After fungal cell addition, at 0, 3, 6, 9, 12, and 24 h, the tubes were vortexed and 100 μL aliquots were removed from each solution, spread onto PDA plates, and incubated at 35° C. Colony counts were determined after 24 h of incubation. The experiments were performed in duplicate (FIG. 2).
# Time-kill assays with ebsulfur (2a) and analogue 3a (FIG. 2) were performed to determine the rate of fungicidal activity of the compounds if the invention.
# [2] = system: C. albicans ATCC 10231 (strain A); assay: ROS production assay (DCFH-DA); type: cell-based, Candida albicans; conditions: 1× and 2× MIC (H2O2 1 mM), 1-h treatment
# Experimental: ROS production assay was performed as previously described with minor modifications. […] Once entering the cells, the DCFH-DA probe is first hydrolyzed to the non-fluorescent 2′,7′-dichlorodihydrofluorescein (DCFH) by cellular esterases. […] A colony of C. albicans ATCC 10231 (strain A) was used to inoculate 5 mL of PDB in a Falcon tube and grown overnight at 35° C. at 200 rpm.
# Thus, whether the compounds of the invention would also induce ROS against C. albicans was studied. […] 2′,7′-dichlorodihydrofluorescin diacetate (DCFH-DA) was then used to detect and visualize ROS production (FIG. 5). As a positive control, cells were treated with H2O2, which is an inducer of hydroxyl radical formation.
smiles,measurement,setting,value
CCCCCn1sc2ccccc2c1=O [Compound 3a],MIC values against clinically relevant Candida strains,Candida strains (A-J),0.78 µg/mL
same,fold more active than AmB,Candida strains (A-J); anti-Candida,1.25- to 10 fold
same,fold more potent in MIC values than FLC,"Candida strains (A-J); anti-Candida, except against strain J",20- to 320 fold
same,cell death,J774A.1 cell line,approximately 50%
same,fungicidal or fungistatic effect,[1],fungistatic
same,reduction of fungal cells,[1],4 log
same,fungicidal or fungistatic effect,[1]; 1× MIC,fungistatic
same,fungicidal or fungistatic effect,[1]; 2× MIC,fungistatic
same,ROS induction (DCFH-DA fluorescence),[2],highly fluorescent
CCCCCCn1sc2ccccc2c1=O [Compound 3b],MIC values against clinically relevant Candida strains,Candida strains (A-J),0.78 µg/mL
same,cell death,J774A.1 cell line,approximately 50%
CC(C)(C)n1sc2ccccc2c1=O [Compound 3g],"MIC values against Candida strains, range",Candida strains (A-J); Candida strains A-J,0.78 to 3.13 µg/mL
same,concentration without any toxicity,"J774A.1 cell line; J774, 24 h",up to 5 μg/mL
